Laboratory results published in ChEMBL document CHEMBL1135452, “Side-chain homologation of nodulisporic acid: synthesis of potent new dienyl derivatives” (Bioorg Med Chem Lett, 2002).

Tested on: Pulicinae
Test: In vitro systemic flea efficacy using membrane feeding assay.
Format: functional

Row | SMILES | Activity
1 | C=C(C)[C@H]1C(=O)c2c3c(cc4c5c(n1c24)[C@@]1(C)C(CC[C@H]2[C@](C)(/C=C/C=C(\C#N)C(=O)N4CCCC4)[C@@H](O)CC[C@@]21C)C5)C1=CC(C)(C)OC(C)(C)C1[C@@H]3O (some centres not stated) | 10 p.p.m.
2 | C=C(C)[C@H]1C(=O)c2c3c(cc4c5c(n1c24)[C@@]1(C)C(CC[C@H]2[C@](C)(/C=C/C=C(\CC)C(=O)NCC)[C@@H](O)CC[C@@]21C)C5)C1=CC(C)(C)OC(C)(C)C1[C@@H]3O (some centres not stated) | 1 p.p.m.
3 | C=C(C)[C@H]1C(=O)c2c3c(cc4c5c(n1c24)[C@@]1(C)C(CC[C@H]2[C@](C)(/C=C/C=C(\CC)C(=O)NC(C)(C)C)[C@@H](O)CC[C@@]21C)C5)C1=CC(C)(C)OC(C)(C)C1[C@@H]3O (some centres not stated) | 1 p.p.m.
4 | C=C/C=C/[C@]1(C)[C@@H](O)CC[C@@]2(C)[C@H]1CCC1Cc3c(n4c5c(c6c(cc35)C3=CC(C)(C)OC(C)(C)C3[C@@H]6O)C(=O)[C@@H]4C(=C)C)[C@@]12C (some centres not stated) | 10 p.p.m.
5 | C=C(C)[C@H]1C(=O)c2c3c(cc4c5c(n1c24)[C@@]1(C)C(CC[C@H]2[C@](C)(/C=C/C=C(\C#N)c4nc6ccccc6[nH]4)[C@@H](O)CC[C@@]21C)C5)C1=CC(C)(C)OC(C)(C)C1[C@@H]3O (some centres not stated) | 10 p.p.m.
6 | C=CC/C(=C\C=C\[C@]1(C)[C@@H](O)CC[C@@]2(C)[C@H]1CCC1Cc3c(n4c5c(c6c(cc35)C3=CC(C)(C)OC(C)(C)C3[C@@H]6O)C(=O)[C@@H]4C(=C)C)[C@@]12C)C(=O)N(C)C (some centres not stated) | 1 p.p.m.
7 | C=C(C)[C@H]1C(=O)c2c3c(cc4c5c(n1c24)[C@@]1(C)C(CC[C@H]2[C@](C)(/C=C/C=C/C(=O)N(C)CC)[C@@H](O)CC[C@@]21C)C5)C1=CC(C)(C)OC(C)(C)C1[C@@H]3O (some centres not stated) | 1 p.p.m.
